Assay: recombinant UMI read abundance after kanamycin selection (control-corrected) (log10(CPM+1)); higher = more efficient recombination; extreme values may be limits of the assay; sequences stand for … in AGTGCAGAGAAAATCGGCCAGTTTTCTCTGCCTGCAGTCCGCATGCCGTGGGACCCCTTGGGTTCTAACCTGTTGCCTAGATTTATGCAGCGGACTGCCTTTCTCCCAAAGTGATAAACCGG…AGGTTGGTTTCACT; site = the 11-nt donor
Procedure, shortened: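 Counts of recombinant UMIs were reported as log10(CPM+1). Before that, they were converted to CPM, averaged over replicates and scaled using control-derived factors. They came from PCR across the donor–target junction after Escherichia coli carrying the pair library and target plasmid was plated on IPTG (0.07 mM) plus kanamycin, or unselected, in two replicates each.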
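Note: IS621 bridge recombinase in Escherichia coli cells against a fixed T5 target plasmid.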

Row | Sequence | recombinant UMI read abundance (log10)
1 | GTGCATGCATGGACCGGTTTTCCCGGTAATCCGTATTTGGG (site GTGCATGCTCC) | 0.746
2 | GTGCATGCATGGACCGGTTTTCCCGGTAATCCGTATTTGGG (site GTGCATGCTGC) | 0
3 | GTGCATGCATGGACCGGTTTTCCCGGTAATCCGTATTTGGG (site GTGCATGCTTC) | 0.0162
4 | GTGCATGCATGGACCGGTTTTCCCGGTAATCCGTATTTGTT (site GTGCATGCTAA) | 2.04
5 | GTGCATGCATGGACCGGTTTTCCCGGTAATCCGTATTTGTT (site GTGCATGCTAC) | 0.0189
6 | GTGCATGCATGGACCGGTTTTCCCGGTAATCCGTATTTGTT (site GTGCATGCTAG) | 1.48
7 | GTGCATGCATGGACCGGTTTTCCCGGTAATCCGTATTTGTT (site GTGCATGCTAT) | 1.31
8 | GTGCATTCATGGACCGGTTTTCCCGGTAATCCGTATTTGGT (site GTGCATACTAC) | 0.361
9 | GTGCATTCATGGACCGGTTTTCCCGGTAATCCGTATTTGGT (site GTGCATCCTAC) | 0.0125
10 | GTGCATTCATGGACCGGTTTTCCCGGTAATCCGTATTTGGT (site GTGCATGCTAC) | 0
11 | GTGCATTCATGGACCGGTTTTCCCGGTAATCCGTATTTGGT (site GTGCATTCTAC) | 1.99
12 | GTGCCTGCATGGACCGGTTTTCCCGGTAATCCGTATTTGGT (site GTGCATGCTAC) | 0.0028
13 | GTGCCTGCATGGACCGGTTTTCCCGGTAATCCGTATTTGGT (site GTGCCTGCTAC) | 0.328
14 | GTGCCTGCATGGACCGGTTTTCCCGGTAATCCGTATTTGGT (site GTGCGTGCTAC) | 0.00453
15 | GTGCCTGCATGGACCGGTTTTCCCGGTAATCCGTATTTGGT (site GTGCTTGCTAC) | 0.00506
16 | GTGCTCACATGGACCGGTTTTCCCGGTAATCCGTATTTGAT (site GAGCTCACTAT) | 0.557
17 | GTGCTCACATGGACCGGTTTTCCCGGTAATCCGTATTTGAT (site GCGCTCACTAT) | 0.322
18 | GTGCTCACATGGACCGGTTTTCCCGGTAATCCGTATTTGAT (site GGGCTCACTAT) | 0.0156
19 | GTGCTCACATGGACCGGTTTTCCCGGTAATCCGTATTTGAT (site GTGCTCACTAT) | 1.9
20 | GTGCTTACATGGACCGGTTTTCCCGGTAATCCGTATTTGGC (site GTGCTTACTGC) | 1.9
21 | GTGGAGCCATGGACCGGTTTTCCCGGTAATCCGTATTTGAT (site GTGGAGCCTAT) | 0.00342
22 | GTGGATACATGGACCGGTTTTCCCGGTAATCCGTATTTGTG (site GTGGATACTCA) | 1.92
23 | GTGGGGGCATGGACCGGTTTTCCCGGTAATCCGTATTTGTG (site GTGGAGGCTCA) | 1.07
24 | GTGGGGGCATGGACCGGTTTTCCCGGTAATCCGTATTTGTG (site GTGGCGGCTCA) | 0.0124
25 | GTGGGGGCATGGACCGGTTTTCCCGGTAATCCGTATTTGTG (site GTGGGGGCTCA) | 0.984

Row | Sequence | recombinant UMI read abundance (log10)
26 | GTGGGGGCATGGACCGGTTTTCCCGGTAATCCGTATTTGTG (site GTGGTGGCTCA) | 0.0315
27 | GTGGGTTCATGGACCGGTTTTCCCGGTAATCCGTATTTGCA (site GTGGGTTCTTG) | 2.55
28 | GTGGTTCCATGGACCGGTTTTCCCGGTAATCCGTATTTGGT (site GTAGTTCCTAC) | 0.553
29 | GTGGTTCCATGGACCGGTTTTCCCGGTAATCCGTATTTGGT (site GTCGTTCCTAC) | 0
30 | GTGGTTCCATGGACCGGTTTTCCCGGTAATCCGTATTTGGT (site GTGGTTCCTAC) | 0.0114
31 | GTGGTTCCATGGACCGGTTTTCCCGGTAATCCGTATTTGGT (site GTTGTTCCTAC) | 0.0137
32 | GTGTATGCATGGACCGGTTTTCCCGGTAATCCGTATTTGGT (site GTGAATGCTAC) | 0.483
33 | GTGTATGCATGGACCGGTTTTCCCGGTAATCCGTATTTGGT (site GTGCATGCTAC) | 1.24
34 | GTGTATGCATGGACCGGTTTTCCCGGTAATCCGTATTTGGT (site GTGGATGCTAC) | 0
35 | GTGTATGCATGGACCGGTTTTCCCGGTAATCCGTATTTGGT (site GTGTATGCTAC) | 2
36 | GTGTCATCATGGACCGGTTTTCCCGGTAATCCGTATTTGCA (site GTGTCATCTTG) | 0.804
37 | GTGTTGCCATGGACCGGTTTTCCCGGTAATCCGTATTTGGC (site GTGTTGCCTGC) | 0
38 | GTGTTTACATGGACCGGTTTTCCCGGTAATCCGTATTTGCG (site GTGTTTACTCG) | 1.66
39 | GTTAACTCATGGACCGGTTTTCCCGGTAATCCGTATTTGAA (site GTTAACTCTTT) | 1.85
40 | GTTAAGGCATGGACCGGTTTTCCCGGTAATCCGTATTTGAG (site GTTAAGGCTCT) | 1.41
41 | GTTACAACATGGACCGGTTTTCCCGGTAATCCGTATTTGGC (site GTTAAAACTGC) | 0.0108
42 | GTTACAACATGGACCGGTTTTCCCGGTAATCCGTATTTGGC (site GTTACAACTGC) | 0
43 | GTTACAACATGGACCGGTTTTCCCGGTAATCCGTATTTGGC (site GTTAGAACTGC) | 0
44 | GTTACAACATGGACCGGTTTTCCCGGTAATCCGTATTTGGC (site GTTATAACTGC) | 0
45 | GTTACGTCATGGACCGGTTTTCCCGGTAATCCGTATTTGTA (site GTTACGTCTTA) | 1.22
46 | GTTACTGCATGGACCGGTTTTCCCGGTAATCCGTATTTGCC (site GATACTGCTGG) | 0
47 | GTTACTGCATGGACCGGTTTTCCCGGTAATCCGTATTTGCC (site GCTACTGCTGG) | 0
48 | GTTACTGCATGGACCGGTTTTCCCGGTAATCCGTATTTGCC (site GGTACTGCTGG) | 0.914
49 | GTTACTGCATGGACCGGTTTTCCCGGTAATCCGTATTTGCC (site GTTACTGCTGG) | 1.83
50 | GTTAGCTCATGGACCGGTTTTCCCGGTAATCCGTATTTGTG (site GTTAGCTCTCA) | 0.415

Row | Sequence | recombinant UMI read abundance (log10)
51 | GTTAGTACATGGACCGGTTTTCCCGGTAATCCGTATTTGGC (site GTTAGAACTGC) | 0
52 | GTTAGTACATGGACCGGTTTTCCCGGTAATCCGTATTTGGC (site GTTAGCACTGC) | 0
53 | GTTAGTACATGGACCGGTTTTCCCGGTAATCCGTATTTGGC (site GTTAGGACTGC) | 0
54 | GTTAGTACATGGACCGGTTTTCCCGGTAATCCGTATTTGGC (site GTTAGTACTGC) | 0.861
55 | GTTATACCATGGACCGGTTTTCCCGGTAATCCGTATTTGCT (site GTTATACCTAG) | 0
56 | GTTATAGCATGGACCGGTTTTCCCGGTAATCCGTATTTGTC (site GTTATAGCTGA) | 2.53
57 | GTTCCAACATGGACCGGTTTTCCCGGTAATCCGTATTTGTA (site GATCCAACTTA) | 0.0199
58 | GTTCCAACATGGACCGGTTTTCCCGGTAATCCGTATTTGTA (site GCTCCAACTTA) | 0.287
59 | GTTCCAACATGGACCGGTTTTCCCGGTAATCCGTATTTGTA (site GGTCCAACTTA) | 0.0991
60 | GTTCCAACATGGACCGGTTTTCCCGGTAATCCGTATTTGTA (site GTTCCAACTTA) | 0.437
61 | GTTCCTACATGGACCGGTTTTCCCGGTAATCCGTATTTGCT (site GTTCCTACTAG) | 0.774
62 | GTTCGAACATGGACCGGTTTTCCCGGTAATCCGTATTTGGC (site GTTAGAACTGC) | 0
63 | GTTCGAACATGGACCGGTTTTCCCGGTAATCCGTATTTGGC (site GTTCGAACTGC) | 0.869
64 | GTTCGAACATGGACCGGTTTTCCCGGTAATCCGTATTTGGC (site GTTGGAACTGC) | 0
65 | GTTCGAACATGGACCGGTTTTCCCGGTAATCCGTATTTGGC (site GTTTGAACTGC) | 0
66 | GTTCGACCATGGACCGGTTTTCCCGGTAATCCGTATTTGTG (site GTTCGACCTCA) | 0.0309
67 | GTTCGAGCATGGACCGGTTTTCCCGGTAATCCGTATTTGCA (site ATTCGAGCTTG) | 1.31
68 | GTTCGAGCATGGACCGGTTTTCCCGGTAATCCGTATTTGCA (site CTTCGAGCTTG) | 0.898
69 | GTTCGAGCATGGACCGGTTTTCCCGGTAATCCGTATTTGCA (site GATCGAGCTTG) | 0.258
70 | GTTCGAGCATGGACCGGTTTTCCCGGTAATCCGTATTTGCA (site GCTCGAGCTTG) | 1.25
71 | GTTCGAGCATGGACCGGTTTTCCCGGTAATCCGTATTTGCA (site GGTCGAGCTTG) | 0.00484
72 | GTTCGAGCATGGACCGGTTTTCCCGGTAATCCGTATTTGCA (site GTACGAGCTTG) | 1.97
73 | GTTCGAGCATGGACCGGTTTTCCCGGTAATCCGTATTTGCA (site GTCCGAGCTTG) | 1.29
74 | GTTCGAGCATGGACCGGTTTTCCCGGTAATCCGTATTTGCA (site GTGCGAGCTTG) | 0.215
75 | GTTCGAGCATGGACCGGTTTTCCCGGTAATCCGTATTTGCA (site GTTAGAGCTTG) | 0.651

— the supplement of paper PMC11208160
